Data set [1] concerns the target T1, human H4 receptor (Homo sapiens, UniProt Q9H3N8).
T1 construct: expressed in transfected cells; host or cells: HEKf cells transduced with baculovirus
The data set can be described thus: H4 Antagonist Functional Dynamic Mass Redistribution Assay. In kind it is cell-based. As to conditions: H4 antagonist activity, read-out: Human H4 DMR fpKb (converted). As to the method: H4 Antagonist Functional Dynamic Mass Redistribution Assay
HEKf cells were infected using baculovirus expressing the human H4 receptor, plated into fibronectin-coated EPIC plates at a density of 10,000 cells/well and incubated overnight at 37° C. The medium on cells was changed to 30 μL HBSS with 20 mM HEPES per well and 30 nL DMSO were added per well by LabCyte ECHO acoustic dispensing. Following 2 h equilibration at room temperature, 30 nL of H4 ligands prepared in DMSO were stamped by LabCyte ECHO acoustic dispensing into seeded EPIC plates and cellular dynamic mass redistribution was monitored using a Corning EPIC plate reader. Following 45 min measurement, 30 nL/well of histamine EC80 was added and monitored to obtain antagonist assay data. Maximum baseline-corrected responses in […] were used to generate concentration response curves. EC50 values were generated using a 4-parameter logistical fit equation to quantify agonist potencies. Functional antagonist affinity values were generated using the Cheng-Prusoff equation to calculate a pKb value using the antagonist assay data.

The target in data set [2] is T1, human H4 receptor. The data set can be described thus: H4 Antagonist Functional cAMP Gi Assay. Type of data set: cell-based. As to conditions: H4 antagonist activity, read-out: Human H4 CAMP fpKb (converted). As for the experimental part:
H4 Antagonist Functional cAMP Gi Assay
HEKf cells were infected overnight using baculovirus expressing the human H4 receptor, then centrifuged at 1,200 rpm for 5 min, frozen in cell freezing medium (Sigma) and stored at −150° C. On the day of assay, the cells were thawed and resuspended in HBSS with 500 nM IBMX to achieve a density of 1,500 cells/well. H4 ligands were prepared in DMSO and stamped by LabCyte ECHO acoustic dispensing at 25 nL in low volume plates. 10 μL/well cells were plated in the presence of 1 μM forskolin, subjected to centrifugation at 1,200 rpm for 1 min and incubated for 30 min prior to addition of Cisbio cAMP detection reagents to a total volume 20 μL/well. For the antagonist assay, cells were pre-incubated with H4 antagonist ligands for 30 min prior to addition of EC80 concentration of histamine and a further 30 min incubation. Following detection reagent addition and shaking at room temperature for 60 min, cAMP accumulation was measured using HTRF on a PheraStar plate reader. EC50 values were generated using a 4-parameter logistical fit equation to quantify agonist potencies. Functional antagonist affinity values were generated using the Cheng-Prusoff equation to calculate a pKb value using the antagonist assay data.

A further data set concerns the target hERG (Homo sapiens, UniProt Q12809). The data set is described as follows: hERG Assay (QPatch automated patch clamp; single-concentration assay at 30 μM and pIC50 assay).
The mark [3] stands for this setting: human, CHO cells stably expressing hERG.

SMILES strings stand for the structures. Structures can show the parent of a compound that is named as a salt. Where two headings read alike, the source gives them in different places.

T1 sequence (Q9H3N8 whole entry): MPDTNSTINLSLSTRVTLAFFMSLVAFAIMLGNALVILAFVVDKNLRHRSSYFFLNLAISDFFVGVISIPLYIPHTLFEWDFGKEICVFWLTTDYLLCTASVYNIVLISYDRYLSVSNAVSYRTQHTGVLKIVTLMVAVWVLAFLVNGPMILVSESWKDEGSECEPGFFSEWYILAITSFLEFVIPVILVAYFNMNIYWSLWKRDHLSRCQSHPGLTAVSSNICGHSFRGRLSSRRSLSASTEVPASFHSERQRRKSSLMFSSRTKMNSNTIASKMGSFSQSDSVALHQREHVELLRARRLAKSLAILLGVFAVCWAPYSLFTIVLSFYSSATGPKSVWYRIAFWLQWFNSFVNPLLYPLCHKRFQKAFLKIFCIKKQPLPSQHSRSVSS
Sequence of hERG (Q12809 whole entry): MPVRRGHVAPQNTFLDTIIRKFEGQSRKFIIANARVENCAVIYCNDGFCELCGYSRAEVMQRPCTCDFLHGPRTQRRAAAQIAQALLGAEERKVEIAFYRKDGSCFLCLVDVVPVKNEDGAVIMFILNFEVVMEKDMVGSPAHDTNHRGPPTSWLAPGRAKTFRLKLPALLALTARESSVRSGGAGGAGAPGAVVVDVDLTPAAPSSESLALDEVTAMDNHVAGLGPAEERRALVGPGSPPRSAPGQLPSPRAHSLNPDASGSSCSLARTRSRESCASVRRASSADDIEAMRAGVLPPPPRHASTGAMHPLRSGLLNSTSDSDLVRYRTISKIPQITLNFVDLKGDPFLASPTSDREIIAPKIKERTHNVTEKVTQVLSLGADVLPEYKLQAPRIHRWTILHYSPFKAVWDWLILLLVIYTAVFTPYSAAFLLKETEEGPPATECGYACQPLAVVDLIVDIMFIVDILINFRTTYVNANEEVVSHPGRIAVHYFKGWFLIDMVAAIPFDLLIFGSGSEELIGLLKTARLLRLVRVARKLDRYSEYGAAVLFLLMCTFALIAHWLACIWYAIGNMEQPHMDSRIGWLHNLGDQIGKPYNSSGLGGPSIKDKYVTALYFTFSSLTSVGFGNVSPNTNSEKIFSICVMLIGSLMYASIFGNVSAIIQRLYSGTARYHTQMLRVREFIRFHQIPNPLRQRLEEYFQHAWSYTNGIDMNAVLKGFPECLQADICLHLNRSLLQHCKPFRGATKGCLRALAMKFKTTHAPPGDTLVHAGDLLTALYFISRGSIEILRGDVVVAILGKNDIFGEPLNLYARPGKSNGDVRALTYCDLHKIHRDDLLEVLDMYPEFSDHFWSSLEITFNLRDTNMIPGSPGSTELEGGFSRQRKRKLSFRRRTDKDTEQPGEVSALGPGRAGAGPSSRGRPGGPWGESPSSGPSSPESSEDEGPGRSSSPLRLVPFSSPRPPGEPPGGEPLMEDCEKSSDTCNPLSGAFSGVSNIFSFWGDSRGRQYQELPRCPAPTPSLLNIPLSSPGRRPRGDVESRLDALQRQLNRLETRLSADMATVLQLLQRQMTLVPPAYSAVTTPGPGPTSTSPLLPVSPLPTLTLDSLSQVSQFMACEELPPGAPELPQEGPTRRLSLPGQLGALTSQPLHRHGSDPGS

For `CCc1n[nH]c(-c2cc(N3CC[C@@H](NC)C3)nc(N)n2)c1C` [Example 7-3], the Kb at human H4 receptor [1] is 20 nM; on human H4 receptor [2], 31.6 nM.

As usually defined, the inhibition is the percentage by which the read-out fell short of the control. Consider `CN[C@@H]1CCN(c2cc(-c3c(C)n[nH]c3C)nc(N)n2)C1` [Example 10-1], for which the Kb at human H4 receptor [1] is 39.8 nM; on human H4 receptor [2], 50.1 nM. The compound further showed an inhibition at 30 µM against hERG (setting [3]) of 21%.

On to `CN[C@@H]1CCN(c2cc(-c3[nH]nc(C)c3C)nc(N)n2)C1` [Example 7-1, (R)-4-(3,4-dimethyl-1H-pyrazol-5-yl)-6-(3-(methylamino)pyrrolidin-1-yl)pyrimidin-2-amine dihydrochloride], for which the Kb on human H4 receptor [1] was 20 nM; at human H4 receptor [2], 6.31 nM. Besides, at hERG (setting [3]), the inhibition at 30 µM was 14%.

As to `CN[C@@H]1CCN(c2cc(-c3[nH]ncc3Br)nc(N)n2)C1` [Example 16-12], the Kb at human H4 receptor [1] was 0.126 nM; on human H4 receptor [2], 0.398 nM. This compound also registered an inhibition at 30 µM on hERG (setting [3]) of 45%.

On to `CNC1CN(c2cc(-c3cc(C(F)(F)F)n[nH]3)nc(N)n2)C1` [Example 15-2], for which the Kb at human H4 receptor [1] was 10 nM.

As usually defined, the IC50 is the midpoint of a concentration-inhibition curve. A low value points to inhibition by little substance. As to `CNC1CN(c2cc(-c3[nH]nc(C)c3Cl)nc(N)n2)C1` [Example 17-5], the Kb on human H4 receptor [1] is 0.794 nM. Besides, inhibition on hERG was half-maximal at 25100 nM (IC50).

For the compound `CN[C@@H]1CCN(c2cc(-c3[nH]ncc3C)nc(N)n2)C1` [Example 4-1, (R)-4-(4-methyl-1H-pyrazol-5-yl)-6-(3-(methylamino)pyrrolidin-1-yl)pyrimidin-2-amine], the results for the Kb at human H4 receptor [1] and on human H4 receptor [2] were 0.501 nM and 1.26 nM, respectively. In addition, the half-maximal inhibitory concentration (IC50) at hERG is ≥ 100000 nM. The compound also gave an inhibition at 30 µM on hERG (setting [3]) of 14%.

`CN[C@H]1CCN(c2cc(-c3[nH]nc(C)c3Cl)nc(N)n2)C1` [Example 17-4, dihydrochloride]: the Kb on human H4 receptor [1] is 5.01 nM. On hERG (setting [3]), at 30 µM the inhibition was 39%.

Take `Cc1n[nH]c(-c2cc(N3CC(N)C3)nc(N)n2)c1Cl` [Example 17-6, ditrifluoroacetate]: at human H4 receptor [1], the Kb was 12.6 nM.

Turning to `CN[C@@H]1CCN(c2cc(-c3cnn(C(F)F)c3C)nc(N)n2)C1` [Example 12-3], the Kb was 6.31 nM on human H4 receptor [1] and 15.8 nM at human H4 receptor [2]. This compound also had an inhibition at 30 µM at hERG (setting [3]) of 47%.

Regarding `CN[C@@H]1CCN(c2cc(-c3[nH]ncc3Cl)nc(N)n2)C1` [Example 4-3, (R)-4-(4-chloro-1H-pyrazol-5-yl)-6-(3-(methylamino)pyrrolidin-1-yl)pyrimidin-2-amine], the Kb on human H4 receptor [1] and at human H4 receptor [2] was 1.26 nM throughout. On hERG (setting [3]), this compound yielded an inhibition at 30 µM of 34%.

Turning to `CN[C@@H]1CCN(c2cc(-c3[nH]ncc3C(F)(F)F)nc(N)n2)C1` [Example 16-9, ditrifluoroacetate], the Kb on human H4 receptor [1] was 20 nM.

On to `CN[C@@H]1CCN(c2cc(-c3c(C)nn(C)c3C)nc(N)n2)C1` [Example 13-1], for which the Kb on human H4 receptor [1] is 5.01 nM; at human H4 receptor [2], 20 nM. At hERG (setting [3]), this compound returned an inhibition at 30 µM of 7%.

Regarding `CN[C@@H]1CCN(c2cc(-c3[nH]ncc3C(F)F)nc(N)n2)C1` [Example 16-8, ditrifluoroacetate], the Kb at human H4 receptor [1] was 25.1 nM.

As to `CN[C@@H]1CCN(c2cc(-c3cnn(C)c3C)nc(N)n2)C1` [Example 12-1], the Kb is 2.51 nM at human H4 receptor [1] and 7.94 nM at human H4 receptor [2]. Also, the half-maximal inhibitory concentration (IC50) against hERG is ≥ 100000 nM.

In the case of `CNC1CN(c2cc(-c3cnn(C(F)(F)F)c3)nc(N)n2)C1` [Example 8-16, ditrifluoroacetate], the Kb was 1.58 nM on human H4 receptor [1] and 0.794 nM on human H4 receptor [2]. Besides, the half-maximal inhibitory concentration (IC50) against hERG is > 100000 nM. Further, the inhibition at 30 µM against hERG (setting [3]) was determined as 33%.

As for `CN[C@@H]1CCN(c2cc(-c3cnn(CCOC)c3)nc(N)n2)C1` [Example 8-10], the Kb on human H4 receptor [1] and on human H4 receptor [2] was 126 nM throughout. Further, the half-maximal inhibitory concentration (IC50) at hERG was ≥ 100000 nM.

Turning to `CN[C@@H]1CCN(c2cc(-c3[nH]nc(C)c3O)nc(N)n2)C1` [Example 17-8], the Kb on human H4 receptor [1] is 39.8 nM.

Take `CNC1CN(c2cc(-c3[nH]nc(C)c3C)nc(N)n2)C1` [Example 17-1]: the Kb on human H4 receptor [1] was 1.58 nM. Besides, the IC50 at hERG is ≥ 31600 nM.

Take `CNC1CN(c2cc(-c3[nH]nc(C(F)F)c3C)nc(N)n2)C1` [Example 17-11, ditrifluoroacetate]: the Kb on human H4 receptor [1] was 3.16 nM.

As for `CN[C@@H]1CCN(c2cc(-c3cnn(C(F)(F)F)c3)nc(N)n2)C1` [Example 8-7, dihydrochloride], the Kb on human H4 receptor [1] was 3.98 nM. Further, the Kb at human H4 receptor [2] is 3.16 nM. On hERG (setting [3]), this compound had an IC50 of 31600 nM and an inhibition at 30 µM of 49%.

`CN[C@@H]1CCN(c2cc(-c3[nH]nc(C)c3OC)nc(N)n2)C1` [Example 17-9]: the Kb on human H4 receptor [1] was 3.98 nM.

As for `CN[C@@H]1CCN(c2cc(-c3[nH]ncc3SC)nc(N)n2)C1` [Example 16-14], at human H4 receptor [1], the Kb is 25.1 nM.

For the compound `CN[C@@H]1CCN(c2cc(N)nc(-c3[nH]ncc3C)c2)C1` [Example 18-1, ditrifluoroacetate], the Kb at human H4 receptor [1] is 0.631 nM.

Take `CN[C@@H]1CCN(c2cc(-c3cn(C(F)F)nc3C)nc(N)n2)C1` [Example 11-6]: the values for the Kb on human H4 receptor [1] and on human H4 receptor [2] were 3.98 nM and 6.31 nM, respectively. The compound also registered an inhibition at 30 µM at hERG (setting [3]) of 90%.

As to `CN[C@@H]1CCN(c2cc(N)nc(-c3cnn(C)c3C)c2)C1` [Example 14-1, (R)-6-(1,5-dimethyl-1H-pyrazol-4-yl)-4-(3-(methylamino)pyrrolidin-1-yl)pyridin-2-amine dihydrochloride], the Kb was 12.6 nM at human H4 receptor [1] and 20 nM at human H4 receptor [2].

Take `Cc1cn[nH]c1-c1cc(N2C[C@H]3CCCN[C@H]3C2)nc(N)n1` [Example 16-7, ditrifluoroacetate]: at human H4 receptor [1], the Kb is 6.31 nM. On hERG, the IC50 is ≥ 100000 nM.

For the compound `CNC1CN(c2cc(-c3[nH]ncc3Br)nc(N)n2)C1` [Example 16-13], the Kb on human H4 receptor [1] is 5.01 nM.

Turning to `CN[C@@H]1CCN(c2cc(-c3[nH]nc(OC)c3Cl)nc(N)n2)C1` [Example 17-17], on human H4 receptor [1], the Kb is 5.01 nM. The same compound came in with an inhibition at 30 µM at hERG (setting [3]) of 49%.

With `CN[C@@H]1CCN(c2cc(-c3[nH]nc(C)c3F)nc(N)n2)C1` [Example 17-3], the Kb on human H4 receptor [1] is 3.98 nM.

For `CN[C@@H]1CCN(c2cc(-c3[nH]nc(Cl)c3C)nc(N)n2)C1` [Example 17-14, dihydrochloride], on human H4 receptor [2], the Kb was 0.0631 nM. The compound further had an inhibition at 30 µM on hERG (setting [3]) of 44%.

For `CN[C@@H]1CCN(c2cc(-c3cnn(C4CCC4)c3)nc(N)n2)C1` [Example 8-5], on human H4 receptor [2], the Kb is 251 nM. The compound also returned an inhibition at 30 µM against hERG (setting [3]) of 77%.

Turning to `CN[C@@H]1CCN(c2cc(-c3cnn4c3CCC4)nc(N)n2)C1` [Example 12-4, dihydrochloride], the Kb at human H4 receptor [2] is 158 nM. For the same compound, testing at 30 µM against hERG (setting [3]) gave an inhibition of 1%.

Turning to `CN[C@@H]1CCN(c2cc(-c3nn(C)cc3C)nc(N)n2)C1` [Example 6-1], the Kb at human H4 receptor [2] was 20 nM. Further, on hERG (setting [3]), the inhibition at 30 µM is 12%.

`CCc1cn[nH]c1-c1cc(N2CC[C@@H](NC)C2)nc(N)n1` [Example 4-2, (R)-4-(4-ethyl-1H-pyrazol-5-yl)-6-(3-(methylamino)pyrrolidin-1-yl)pyrimidin-2-amine]: the Kb at human H4 receptor [2] is 10 nM. At hERG (setting [3]), this compound had an inhibition at 30 µM of 25%.

For the compound `CCc1n[nH]c(-c2cc(N3CC[C@@H](NC)C3)nc(N)n2)c1F` [Example 17-13], on human H4 receptor [1], the Kb was 50.1 nM.

In the case of `Nc1nc(-c2cc(C(F)(F)F)n[nH]2)cc(N2CC[C@@H](N)C2)n1` [Example 3-5], on human H4 receptor [2], the Kb is 100 nM. Also, on hERG (setting [3]), the inhibition at 30 µM stood at 19%.

Source of the values: patent publication US12234227B2, “Pyrazole derivatives as H4 antagonist compounds” (NXERA PHARMA UK LIMITED, priority 2018, dated 2025).
